{"source": "paper PMC5339874", "about": "“Fluorene-9-bisphenol is anti-oestrogenic and may cause adverse pregnancy outcomes in mice” (Nature Communications, 2017)", "key": {"CD-1 mice": {"system": "CD-1 mice", "experiment": "Global gene expression microarray of livers, ovaries and uteri", "format": "in vivo", "method": "The uteri, ovaries and livers were collected for total RNA isolation. Total RNA was isolated using Trizol reagent (Invitrogen) and further purified by NucleoSpin RNA Clean-up (Macherey-Nagel, Germany). Fluorescence labelling of the RNA samples was performed with a Jingxin cRNA linear amplification and labelling kit (CapitalBio) according to the manufacturer's instructions. The total RNA from each pool of tissue samples (a mixture from three animals) was used for microarray analysis. Cy3 dCTP was used to label the samples. The labelled products were added to SurePrint G3 mouse gene expression 8 × 60 K microarrays (Agilent) and incubated overnight at 42 °C. Following hybridization, the gene arrays were washed and scanned using an Agilent G2565CA Microarray Scanner. Glyceraldehyde 3-phosphate dehydrogenase (GAPDH) was used as an endogenous control to monitor the quality of the target preparation. The data were processed with feature extraction software (GeneSpring GX v.11; Agilent). The raw signals were log-transformed and normalized with the percentile shift normalization method. All arrays met the minimum Agilent QA/QC standards. To verify the data from the gene array, 14 genes were chosen as candidates for Q-RT-PCR. Primers are listed in Supplementary Table 4. GAPDH was used as an endogenous control. Amplification was performed using SYBR Green PCR master mix (Applied Biosystems) according to the manufacturer's instructions. The relative expression was quantified using the 2^(−ΔΔCt) method. The Gene Ontology (GO) and KEGG pathway enrichment analyses were performed with DAVID (refs [40], [41])."}, "female CD-1 mice": {"system": "female CD-1 mice", "experiment": "Improved anti-uterotrophic assay, daily oral gavage for 10 days beginning on PND 24", "format": "in vivo", "settings": "BHPF at 27.8 mg kg^−1 bw d^−1", "method": "The animals were fed ad libitum with a basic diet from the Laboratory Animal Center of the Academy of Military Medical Sciences (Beijing, China), and drinking water was provided ad libitum. […] The volume of vehicle or chemical solutions administered was adjusted daily based on body weight measured during the dosing period according to the volume-body weight ratio of 5 ml kg^−1 bw."}, "[1]": {"settings": "50 mg/kg bw/d BHPF, 3 days, endogenous control"}, "[2]": {"settings": "liver, 50 mg kg^−1 bw d^−1, 3 days"}, "[3]": {"settings": "ovaries, 50 mg kg^−1 bw d^−1, 3 days"}, "[4]": {"settings": "uteri, 50 mg kg^−1 bw d^−1, 3 days"}}, "data": [{"smiles": "Oc1ccc(C2(c3ccc(O)cc3)c3ccccc3-c3ccccc32)cc1", "note": "[BHPF, 9,9-bis(4-hydroxyphenyl)-fluorene]", "values": [{"measurement": "genes involved in biotransformation and oxidation-reduction processes", "setting": "CD-1 mice; 50 mg kg^−1 bw d^−1, 3 days", "value": "up-regulated in the uterus but not in the liver"}, {"measurement": "Actb gene expression change, liver, Microarray", "setting": "CD-1 mice; 50 mg/kg bw/d BHPF, 3 days", "value": 1.09}, {"measurement": "Actb gene expression change, ovary, Microarray", "setting": "CD-1 mice; 50 mg/kg bw/d BHPF, 3 days", "value": 1.34}, {"measurement": "Actb gene expression change, uterus, Microarray", "setting": "CD-1 mice; 50 mg/kg bw/d BHPF, 3 days", "value": 1.07}, {"measurement": "Cfd gene expression change, liver, Microarray", "setting": "CD-1 mice; 50 mg/kg bw/d BHPF, 3 days", "value": -3.11}, {"measurement": "Cfd gene expression change, ovary, Microarray", "setting": "CD-1 mice; 50 mg/kg bw/d BHPF, 3 days", "value": 4.13}, {"measurement": "Cfd gene expression change, uterus, Microarray", "setting": "CD-1 mice; 50 mg/kg bw/d BHPF, 3 days", "value": -6.54}, {"measurement": "Orm1 gene expression change, liver, Microarray", "setting": "CD-1 mice; 50 mg/kg bw/d BHPF, 3 days", "value": -1.65}, {"measurement": "Orm1 gene expression change, ovary, Microarray", "setting": "CD-1 mice; 50 mg/kg bw/d BHPF, 3 days", "value": 1.18}, {"measurement": "Orm1 gene expression change, uterus, Microarray", "setting": "CD-1 mice; 50 mg/kg bw/d BHPF, 3 days", "value": 23.12}, {"measurement": "Spp1 gene expression change, liver, Microarray", "setting": "CD-1 mice; 50 mg/kg bw/d BHPF, 3 days", "value": -1.30}, {"measurement": "Spp1 gene expression change, ovary, Microarray", "setting": "CD-1 mice; 50 mg/kg bw/d BHPF, 3 days", "value": -1.67}, {"measurement": "Spp1 gene expression change, uterus, Microarray", "setting": "CD-1 mice; 50 mg/kg bw/d BHPF, 3 days", "value": 2.57}, {"measurement": "Sprr1a gene expression change, liver, Microarray", "setting": "CD-1 mice; 50 mg/kg bw/d BHPF, 3 days", "value": 2.17}, {"measurement": "Sprr1a gene expression change, ovary, Microarray", "setting": "CD-1 mice; 50 mg/kg bw/d BHPF, 3 days", "value": 1.17}, {"measurement": "Sprr1a gene expression change, uterus, Microarray", "setting": "CD-1 mice; 50 mg/kg bw/d BHPF, 3 days", "value": -3.44}, {"measurement": "Sprr2a2 gene expression change, liver, Microarray", "setting": "CD-1 mice; 50 mg/kg bw/d BHPF, 3 days", "value": 2.10}, {"measurement": "Sprr2a2 gene expression change, ovary, Microarray", "setting": "CD-1 mice; 50 mg/kg bw/d BHPF, 3 days", "value": -12.01}, {"measurement": "Sprr2a2 gene expression change, uterus, Microarray", "setting": "CD-1 mice; 50 mg/kg bw/d BHPF, 3 days", "value": -5.24}, {"measurement": "Sprr2b gene expression change, liver, Microarray", "setting": "CD-1 mice; 50 mg/kg bw/d BHPF, 3 days", "value": 2.75}, {"measurement": "Sprr2b gene expression change, ovary, Microarray", "setting": "CD-1 mice; 50 mg/kg bw/d BHPF, 3 days", "value": -2.07}, {"measurement": "Sprr2b gene expression change, uterus, Microarray", "setting": "CD-1 mice; 50 mg/kg bw/d BHPF, 3 days", "value": -13.20}, {"measurement": "Sprr2f gene expression change, liver, Microarray", "setting": "CD-1 mice; 50 mg/kg bw/d BHPF, 3 days", "value": 3.69}, {"measurement": "Sprr2f gene expression change, ovary, Microarray", "setting": "CD-1 mice; 50 mg/kg bw/d BHPF, 3 days", "value": -5.81}, {"measurement": "Sprr2f gene expression change, uterus, Microarray", "setting": "CD-1 mice; 50 mg/kg bw/d BHPF, 3 days", "value": -2.52}, {"measurement": "Sprr2g gene expression change, liver, Microarray", "setting": "CD-1 mice; 50 mg/kg bw/d BHPF, 3 days", "value": 2.09}, {"measurement": "Sprr2g gene expression change, ovary, Microarray", "setting": "CD-1 mice; 50 mg/kg bw/d BHPF, 3 days", "value": -5.71}, {"measurement": "Sprr2g gene expression change, uterus, Microarray", "setting": "CD-1 mice; 50 mg/kg bw/d BHPF, 3 days", "value": -2.13}, {"measurement": "chil3 gene expression change, liver, Microarray", "setting": "CD-1 mice; 50 mg/kg bw/d BHPF, 3 days", "value": -8.53}, {"measurement": "chil3 gene expression change, ovary, Microarray", "setting": "CD-1 mice; 50 mg/kg bw/d BHPF, 3 days", "value": -9.16}, {"measurement": "chil3 gene expression change, uterus, Microarray", "setting": "CD-1 mice; 50 mg/kg bw/d BHPF, 3 days", "value": -6.60}, {"measurement": "cyp2e1 gene expression change, liver, Microarray", "setting": "CD-1 mice; 50 mg/kg bw/d BHPF, 3 days", "value": -1.01}, {"measurement": "cyp2e1 gene expression change, ovary, Microarray", "setting": "CD-1 mice; 50 mg/kg bw/d BHPF, 3 days", "value": 1.25}, {"measurement": "cyp2e1 gene expression change, uterus, Microarray", "setting": "CD-1 mice; 50 mg/kg bw/d BHPF, 3 days", "value": 5.02}, {"measurement": "ll1f6 gene expression change, liver, Microarray", "setting": "CD-1 mice; 50 mg/kg bw/d BHPF, 3 days", "value": 1.95}, {"measurement": "ll1f6 gene expression change, ovary, Microarray", "setting": "CD-1 mice; 50 mg/kg bw/d BHPF, 3 days", "value": -1.11}, {"measurement": "ll1f6 gene expression change, uterus, Microarray", "setting": "CD-1 mice; 50 mg/kg bw/d BHPF, 3 days", "value": -10.96}, {"measurement": "serp1d gene expression change, liver, Microarray", "setting": "CD-1 mice; 50 mg/kg bw/d BHPF, 3 days", "value": 1.02}, {"measurement": "serp1d gene expression change, ovary, Microarray", "setting": "CD-1 mice; 50 mg/kg bw/d BHPF, 3 days", "value": 1.13}, {"measurement": "serp1d gene expression change, uterus, Microarray", "setting": "CD-1 mice; 50 mg/kg bw/d BHPF, 3 days", "value": 17.78}, {"measurement": "GAPDH gene expression change, liver, Microarray", "setting": "CD-1 mice; [1]", "value": 1.02}, {"measurement": "GAPDH gene expression change, ovary, Microarray", "setting": "CD-1 mice; [1]", "value": 1.03}, {"measurement": "GAPDH gene expression change, uterus, Microarray", "setting": "CD-1 mice; [1]", "value": -1.02}, {"measurement": "share of modified genes down-regulated", "setting": "CD-1 mice; [2]", "value": 22.3, "unit": "%"}, {"measurement": "share of modified genes up-regulated", "setting": "CD-1 mice; [2]", "value": 77.7, "unit": "%"}, {"measurement": "expression of sprr2a, sprr2b, sprr2f and sprr2g (response to E2 stimuli)", "setting": "CD-1 mice; [3]", "value": "down-regulated"}, {"measurement": "share of modified genes down-regulated", "setting": "CD-1 mice; [3]", "value": 65.5, "unit": "%"}, {"measurement": "share of modified genes up-regulated", "setting": "CD-1 mice; [3]", "value": 34.5, "unit": "%"}, {"measurement": "expression pattern of oestrogen-responsive genes compared with that induced by E2", "setting": "CD-1 mice; [4]", "value": "opposite expression pattern"}, {"measurement": "share of modified genes down-regulated", "setting": "CD-1 mice; [4]", "value": 43.4, "unit": "%"}, {"measurement": "share of modified genes up-regulated", "setting": "CD-1 mice; [4]", "value": 56.6, "unit": "%"}, {"measurement": "anti-uterotrophic activity compared with FULV", "setting": "female CD-1 mice", "value": "close to that of FULV at 2 mg kg^−1 bw d^−1"}]}]}
